{"source": "ChEMBL document CHEMBL1143477", "about": "“Camptothecin binds to a synthetic peptide identified by a T7 phage display screen” (Bioorg Med Chem Lett, 2005)", "key": {"[1]": {"experiment": "Dissociation constant for binding of camptothecin to the synthetic peptide NSSQSARR by surface plasmon resonance (SPR) method after compound dissolved in 10 % DMSO at 25 degree C"}, "[2]": {"experiment": "Dissociation constant for binding of camptothecin to the synthetic peptide NSSQSARR by using quartz-crystal microbalance (QCM) method after compound dissolved in 10 % DMSO at 25 degree C"}}}
{"smiles": "CC[C@@]1(O)C(=O)OCc2c1cc1n(c2=O)Cc2cc3ccccc3nc2-1", "note": "[CAMPTOTHECIN]", "values": [{"measurement": "Kd", "setting": "[1]", "result": 112, "unit": "nM"}, {"measurement": "Kd", "setting": "[2]", "result": 94, "unit": "nM"}]}
